Results reported in patent US9932637B2, “Genetic polymorphisms associated with cardiovascular disorders and drug response, methods of detection and uses thereof” (CELERA CORPORATION, priority 2003, dated 2018).

Test system: patients with prior myocardial infarction (CARE study)
Test: CARE: association of SNPs with pravastatin treatment in cardiovascular events prevention (logistic regression, odds ratio pravastatin vs placebo by genotype; Table 8)
Type: in vivo, human
Conditions: for MI (Fatal/Nonfatal), n/total (%) / Nonfatal MI (Probable/Definite), n/total (%) / Nonfatal MI (def & prob), n/total (%) / Fatal/Nonfatal MI (def & prob), n/total (%) / Hosp. for Unstable Angina, n/total (%): MJD hCV16189421, All Patients; for MI (Fatal/Nonfatal), n/total (%) / Nonfatal MI (Probable/Definite), n/total (%) / Nonfatal MI (def & prob), n/total (%) / Fatal/Nonfatal MI (def & prob), n/total (%) / Hosp. for Unstable Angina, n/total (%) / Percutaneous Transluminal Coronary Angioplas, n/total (%) / Fatal/Nonfatal Cerebrovascular Disease, n/total (%): Prava arm; for Percutaneous Transluminal Coronary Angioplas, n/total (%): MMP27 hCV7492601, All Patients; for Total Coronary Heart Disease Events, n/total (%) / Fatal/Non-fatal Atherosclerotic CV Disease, n/total (%) / Hosp. for Cardiovascular Disease, n/total (%) / Total Cardiovascular Disease Events, n/total (%) / Prava vs. Placebo Odds Ratio, 0 Rare Alleles / Prava vs. Placebo Odds Ratio, 1 Rare Alleles / Prava vs. Placebo Odds Ratio, 2 Rare Alleles / Fatal Atherosclerotic Cardiovascular Disease, n/total (%) / Cardiovascular Mortality, n/total (%): All Patients; for Total Coronary Heart Disease Events, n/total (%) / Fatal/Non-fatal Atherosclerotic CV Disease, n/total (%) / Hosp. for Cardiovascular Disease, n/total (%) / Total Cardiovascular Disease Events, n/total (%) / Fatal Atherosclerotic Cardiovascular Disease, n/total (%) / Cardiovascular Mortality, n/total (%): Prava; for Fatal/Nonfatal Cerebrovascular Disease, n/total (%): NID2 hCV15876071, All Patients
Source text: In order to identify genetic markers associated with acute coronary events (e.g. MI, stroke, unstable angina, congestive heart failure, etc.) or response to statin treatment for the prevention of coronary events, samples from the Cholesterol and Recurrent Events (CARE) study (a randomized multicentral double-blinded trial on secondary prevention of acute coronary events with pravastatin) (Sacks et al., 1991, Am. J. Cardiol. 68: 1436-1446) were genotyped. A well-documented myocardial infarction (MI) was one of the enrollment criteria for entry into the CARE study. Patients were enrolled in the CARE trial from 80 participating study centers. […] Patients were randomized to receive either 40 mg of pravastatin once daily or a matching placebo. The primary endpoint of the trial was death from coronary heart disease and the median duration of follow-up was 5.0 years (range, 4.0 to 6.2 years). […] Secondary endpoints of other related cardiovascular or metabolic disease events, and changes in clinical variables were also recorded in pravastatin-treated and placebo groups. All individuals included in the study had signed a written informed consent form and the study protocol was approved by the respective Institutional Review Boards (IRBs).
For genotyping SNPs in CARE patient samples, DNA was extracted from blood samples using conventional DNA extraction methods such as the QIA-amp kit from Qiagen. Genotypes were obtained on an ABI PRISM® 7900HT Sequence Detection PCR system (Applied Biosystems, Foster City, Calif.) by kinetic allele-specific PCR, similar to the method described by Germer et al. (Germer S., Holland M. J., Higuchi R. 2000, Genome Res. 10: 258-266).
Statistical analysis for association of SNPs with pravastatin treatment in cardiovascular events prevention (Table 8) was carried out using an overall logistic regression model that included an intercept, a parameter for the effect of a genotype containing two rare alleles versus a genotype containing no rare alleles, a parameter for the effect of a genotype containing one rare allele versus a genotype containing no rare alleles, a parameter for the effect of use of pravastatin versus the use of placebo, and parameters for the interaction effects between SNP genotypes and pravastatin use. The test of the overall model is a chi-square test with two degrees of freedom for analyses containing all three genotypes, and one degree of freedom for analyses containing two genotypes.
Effect sizes were estimated through odds ratios (pravastatin group versus placebo) for carriers of each genotype (groups of 0, 1, and 2 minor allele carriers). The effect was considered to be significant if p-value for testing whether any of the interactions between SNP genotypes and pravastatin use were <0.05. […] Odds ratios less than one indicate that the specific SNP allele has a protective effect and odds ratios greater than one indicate that the specific SNP allele has an adverse effect.

[1] = MTRR hCV7580070, 2 Rare Alleles, n/total 2/22
[2] = MTRR hCV7580070, 2 Rare Alleles, n/total 5/22
[3] = MTRR hCV7580070, Fatal/Non-fatal Atherosclerotic CV Disease
[4] = MTRR hCV7580070, Hosp. for Cardiovascular Disease
[5] = MTRR hCV7580070, Total Cardiovascular Disease Events
[6] = MTRR hCV7580070, Total Coronary Heart Disease Events
[7] = NPC1 hCV7490135, 1 Rare Allele, n/total 26/742
[8] = NPC1 hCV7490135, 2 Rare Alleles, n/total 3/324

Question: `CC[C@H](C)C(=O)O[C@H]1C[C@H](O)C=C2C=C[C@H](C)[C@H](CC[C@@H](O)C[C@@H](O)CC(=O)O)[C@H]21` [pravastatin] was tested. Which “MI (Fatal/Nonfatal), n/total (%)” value (0 Rare Alleles) did it give?
Answer: (8.6%)

Question: What about the “Nonfatal MI (Probable/Definite), n/total (%)” value (0 Rare Alleles) of the same molecule?
Answer: (8.0%)

Question: And the “Nonfatal MI (def & prob), n/total (%)” value (0 Rare Alleles)?
Answer: (7.5%)

Question: What about the “Fatal/Nonfatal MI (def & prob), n/total (%)” value (1 Rare Allele) of the same molecule?
Answer: (11.9%)

Question: And the “Hosp. for Unstable Angina, n/total (%)” value (1 Rare Allele)?
Answer: (17.6%)

Question: What about the “MI (Fatal/Nonfatal), n/total (%)” value (1 Rare Allele) of the same molecule?
Answer: (12.1%)

Question: What about the “Nonfatal MI (Probable/Definite), n/total (%)” value (1 Rare Allele) of the same molecule?
Answer: (11.3%)

Question: And the “Nonfatal MI (def & prob), n/total (%)” value (1 Rare Allele)?
Answer: (11.2%)

Question: And the “Fatal/Nonfatal MI (def & prob), n/total (%)” value (2 Rare Alleles)?
Answer: (11.2%)

Question: And the “Hosp. for Unstable Angina, n/total (%)” value (2 Rare Alleles)?
Answer: (10.1%)

Question: And the “MI (Fatal/Nonfatal), n/total (%)” value (2 Rare Alleles)?
Answer: (11.2%)

Question: And the “Nonfatal MI (Probable/Definite), n/total (%)” value (2 Rare Alleles)?
Answer: (11.2%)

Question: And the “Nonfatal MI (def & prob), n/total (%)” value (2 Rare Alleles)?
Answer: (11.2%)

Question: And the “Percutaneous Transluminal Coronary Angioplas, n/total (%)” value (0 Rare Alleles)?
Answer: (9.7%)

Question: What about the “Percutaneous Transluminal Coronary Angioplas, n/total (%)” value (1 Rare Allele) of the same molecule?
Answer: (9.1%)

Question: What about the “Percutaneous Transluminal Coronary Angioplas, n/total (%)” value (2 Rare Alleles) of the same molecule?
Answer: (8.2%)

Question: What about the “Total Coronary Heart Disease Events, n/total (%)” value (MTRR hCV7580070, 0 Rare Alleles, n/total 338/1201) of the same molecule?
Answer: (28.1%)

Question: What about the “Fatal/Non-fatal Atherosclerotic CV Disease, n/total (%)” value (MTRR hCV7580070, 0 Rare Alleles, n/total 390/1201) of the same molecule?
Answer: (32.5%)

Question: What about the “Hosp. for Cardiovascular Disease, n/total (%)” value (MTRR hCV7580070, 0 Rare Alleles, n/total 466/1201) of the same molecule?
Answer: (38.8%)

Question: And the “Total Cardiovascular Disease Events, n/total (%)” value (MTRR hCV7580070, 0 Rare Alleles, n/total 480/1201)?
Answer: (40.0%)

Question: What about the “Total Coronary Heart Disease Events, n/total (%)” value (MTRR hCV7580070, 1 Rare Allele, n/total 98/284) of the same molecule?
Answer: (34.5%)

Question: And the “Fatal/Non-fatal Atherosclerotic CV Disease, n/total (%)” value (MTRR hCV7580070, 1 Rare Allele, n/total 110/284)?
Answer: (38.7%)

Question: And the “Hosp. for Cardiovascular Disease, n/total (%)” value (MTRR hCV7580070, 1 Rare Allele, n/total 135/284)?
Answer: (47.5%)

Question: What about the “Total Cardiovascular Disease Events, n/total (%)” value (MTRR hCV7580070, 1 Rare Allele, n/total 137/284) of the same molecule?
Answer: (48.2%)

Question: And the “Fatal/Non-fatal Atherosclerotic CV Disease, n/total (%)” value [1]?
Answer: (9.1%)

Question: And the “Total Coronary Heart Disease Events, n/total (%)” value [1]?
Answer: (9.1%)

Question: And the “Hosp. for Cardiovascular Disease, n/total (%)” value [2]?
Answer: (22.7%)

Question: And the “Total Cardiovascular Disease Events, n/total (%)” value [2]?
Answer: (22.7%)

Question: What about the “Prava vs. Placebo Odds Ratio, 0 Rare Alleles” value [3] of the same molecule?
Answer: 0.74

Question: And the “Prava vs. Placebo Odds Ratio, 1 Rare Alleles” value [3]?
Answer: 0.95

Question: And the “Prava vs. Placebo Odds Ratio, 2 Rare Alleles” value [3]?
Answer: 0.09

Question: What about the “Prava vs. Placebo Odds Ratio, 0 Rare Alleles” value [4] of the same molecule?
Answer: 0.71

Question: And the “Prava vs. Placebo Odds Ratio, 1 Rare Alleles” value [4]?
Answer: 1.04

Question: And the “Prava vs. Placebo Odds Ratio, 2 Rare Alleles” value [4]?
Answer: 0.22

Question: What about the “Prava vs. Placebo Odds Ratio, 0 Rare Alleles” value [5] of the same molecule?
Answer: 0.71

Question: And the “Prava vs. Placebo Odds Ratio, 1 Rare Alleles” value [5]?
Answer: 1.01

Question: What about the “Prava vs. Placebo Odds Ratio, 2 Rare Alleles” value [5] of the same molecule?
Answer: 0.22

Question: And the “Prava vs. Placebo Odds Ratio, 0 Rare Alleles” value [6]?
Answer: 0.73

Question: And the “Prava vs. Placebo Odds Ratio, 1 Rare Alleles” value [6]?
Answer: 1.00

Question: And the “Prava vs. Placebo Odds Ratio, 2 Rare Alleles” value [6]?
Answer: 0.12

Question: And the “Fatal/Nonfatal Cerebrovascular Disease, n/total (%)” value (0 Rare Alleles)?
Answer: (5.7%)

Question: What about the “Fatal/Nonfatal Cerebrovascular Disease, n/total (%)” value (1 Rare Allele) of the same molecule?
Answer: (4.1%)

Question: And the “Fatal/Nonfatal Cerebrovascular Disease, n/total (%)” value (2 Rare Alleles)?
Answer: (1.7%)

Question: What about the “Fatal Atherosclerotic Cardiovascular Disease, n/total (%)” value (NPC1 hCV7490135, 0 Rare Alleles, n/total 25/437) of the same molecule?
Answer: (5.7%)

Question: And the “Cardiovascular Mortality, n/total (%)” value (NPC1 hCV7490135, 0 Rare Alleles, n/total 26/437)?
Answer: (5.9%)

Question: What about the “Total Coronary Heart Disease Events, n/total (%)” value (NPC1 hCV7490135, 0 Rare Alleles, n/total 146/437) of the same molecule?
Answer: (33.4%)

Question: And the “Fatal/Non-fatal Atherosclerotic CV Disease, n/total (%)” value (NPC1 hCV7490135, 0 Rare Alleles, n/total 165/437)?
Answer: (37.8%)

Question: What about the “Hosp. for Cardiovascular Disease, n/total (%)” value (NPC1 hCV7490135, 0 Rare Alleles, n/total 194/437) of the same molecule?
Answer: (44.4%)

Question: And the “Total Cardiovascular Disease Events, n/total (%)” value (NPC1 hCV7490135, 0 Rare Alleles, n/total 202/437)?
Answer: (46.2%)

Question: What about the “Cardiovascular Mortality, n/total (%)” value [7] of the same molecule?
Answer: (3.5%)

Question: What about the “Fatal Atherosclerotic Cardiovascular Disease, n/total (%)” value [7] of the same molecule?
Answer: (3.5%)

Question: What about the “Total Coronary Heart Disease Events, n/total (%)” value (NPC1 hCV7490135, 1 Rare Allele, n/total 213/742) of the same molecule?
Answer: (28.7%)

Question: What about the “Fatal/Non-fatal Atherosclerotic CV Disease, n/total (%)” value (NPC1 hCV7490135, 1 Rare Allele, n/total 246/742) of the same molecule?
Answer: (33.2%)

Question: What about the “Hosp. for Cardiovascular Disease, n/total (%)” value (NPC1 hCV7490135, 1 Rare Allele, n/total 295/742) of the same molecule?
Answer: (39.8%)

Question: What about the “Total Cardiovascular Disease Events, n/total (%)” value (NPC1 hCV7490135, 1 Rare Allele, n/total 303/742) of the same molecule?
Answer: (40.8%)

Question: And the “Cardiovascular Mortality, n/total (%)” value [8]?
Answer: (0.9%)

Question: And the “Fatal Atherosclerotic Cardiovascular Disease, n/total (%)” value [8]?
Answer: (0.9%)

Question: And the “Total Coronary Heart Disease Events, n/total (%)” value (NPC1 hCV7490135, 2 Rare Alleles, n/total 81/324)?
Answer: (25.0%)
